Like-named read-outs stand apart in the source and are kept apart here.

One assay concerns the target T1, M1 muscarinic receptor (Homo sapiens, UniProt P11229).
T1 construct: expressed in transfected cells; host or cells: CHO cells (M1-CHO, under zeocin and G418 selection)
T1 sequence (P11229 1-460): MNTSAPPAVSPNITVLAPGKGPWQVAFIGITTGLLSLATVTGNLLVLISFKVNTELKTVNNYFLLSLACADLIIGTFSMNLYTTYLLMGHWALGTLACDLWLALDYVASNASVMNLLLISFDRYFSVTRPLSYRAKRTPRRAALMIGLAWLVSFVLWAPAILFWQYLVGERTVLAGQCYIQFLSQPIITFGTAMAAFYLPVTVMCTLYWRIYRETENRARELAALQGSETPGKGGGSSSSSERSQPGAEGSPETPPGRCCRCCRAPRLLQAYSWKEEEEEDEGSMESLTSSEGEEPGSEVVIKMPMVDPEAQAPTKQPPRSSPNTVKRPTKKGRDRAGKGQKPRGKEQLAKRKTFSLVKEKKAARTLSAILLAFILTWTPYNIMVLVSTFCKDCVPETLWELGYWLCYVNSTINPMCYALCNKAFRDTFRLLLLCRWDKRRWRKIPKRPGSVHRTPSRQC
Description: Functional mobilization of intracellular calcium (FLIPR, Fluo-3), M1-CHO cells. Type of assay: cell-based. To be noted: for Emax: read-out: M1 Efficacy. A digest of the protocol: (§1)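 CHO lines stably carrying the muscarinic subtype, dye-loaded with Fluo-3 at 37° C for 60-90 min, receive test compound in 0.5% DMSO. Agonist effects are read directly; antagonist effects against carbachol at EC80 after 15 min pre-incubation.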
For orientation: A change in cytosolic calcium serves as a functional read-out for many receptors and channels.

In the next assay the target is T2, M4 muscarinic receptor (Homo sapiens, UniProt P08173).
T2 construct: expressed in transfected cells; host or cells: CHO cells (M4-CHO, under puromycin, zeocin and blasticidin selection)
T2 sequence (P08173 1-479): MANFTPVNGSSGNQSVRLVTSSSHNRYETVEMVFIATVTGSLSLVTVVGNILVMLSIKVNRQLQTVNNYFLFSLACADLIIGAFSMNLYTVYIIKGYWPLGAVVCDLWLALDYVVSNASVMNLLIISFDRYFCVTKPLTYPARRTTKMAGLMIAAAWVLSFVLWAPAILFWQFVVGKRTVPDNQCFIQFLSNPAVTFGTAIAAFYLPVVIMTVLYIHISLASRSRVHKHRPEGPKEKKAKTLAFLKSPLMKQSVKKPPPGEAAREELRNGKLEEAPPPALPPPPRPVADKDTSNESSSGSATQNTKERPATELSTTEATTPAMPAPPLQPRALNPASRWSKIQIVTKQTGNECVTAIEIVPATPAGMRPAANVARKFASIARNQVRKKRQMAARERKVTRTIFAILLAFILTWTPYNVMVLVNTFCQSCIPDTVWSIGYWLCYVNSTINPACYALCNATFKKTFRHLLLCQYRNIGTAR
Description: Functional mobilization of intracellular calcium (FLIPR, Fluo-3), M4-CHO cells. Type of assay: cell-based. Particulars: for Emax: read-out: M4 Efficacy. The procedure, abridged:
as §1

Where [1] appears, read: compound nos. 1-454, 100% efficacy is the maximum response obtained with the Carbachol control.
The mark [2] stands for this setting: compound nos. 1-454, M1-CHO cells, calcium mobilization.
Where [3] appears, read: compound nos. 1-454, M4-CHO cells, calcium mobilization.
[4] abbreviates: compound nos. 455-509, 100% efficacy is the maximum response obtained with the Carbachol control.

For the molecule `COCCOC(=O)N1C2CCC1CC(N1CCC3(CC1)CN(C(=O)O[C@@H]1CCOC1)c1ccc(F)cc13)C2` (some centres unmarked) [compound 216], the results for the Emax at M1 muscarinic receptor (setting [1]) and at M4 muscarinic receptor (setting [1]) were more than 85% and less than 55%, respectively. Also, the “M1 Activity” value on M1 muscarinic receptor (setting [2]) is recorded as “+++ (activity was measured to be less than or equal to 0.7 μM)”. Moreover, the “M4 Activity” value at M4 muscarinic receptor (setting [3]) is recorded as “+ (activity was measured to be greater than or equal to 4.0 μM)”.
Consider `CN(C)C(=O)N1CC2(CCN(CC3CCN(c4cnccn4)C3)CC2)c2cc(F)ccc21` (centres unmarked) [compound 449], for which the “M1 Activity” value on M1 muscarinic receptor (compound nos. 1-454) is “+++ (activity was measured to be less than or equal to 0.7 μM)”. Besides, at M1 muscarinic receptor (setting [1]), the “M1 Efficacy” value was “++ (efficacy was calculated to be between 85% and 65%)”. Moreover, on M4 muscarinic receptor (compound nos. 1-454), the “M4 Activity” value is “+++ (activity was measured to be less than or equal to 0.1 μM)”. The “M4 Efficacy” value on M4 muscarinic receptor (setting [1]) is “++ (efficacy was calculated to be between 70% and 55%)”.
For `O=C1CC2(CCN(C[C@H]3C[C@H]4C=C[C@H]3C4)CC2)c2ccccc21` [compound 104], the Emax at M1 muscarinic receptor (setting [1]) is 65 to 85%; on M4 muscarinic receptor (setting [1]), less than 55%. For the same molecule, the “M1 Activity” value at M1 muscarinic receptor (setting [2]) was “+++ (activity was measured to be less than or equal to 0.7 μM)”. For the same molecule, the “M4 Activity” value at M4 muscarinic receptor (setting [3]) is reported as “+ (activity was measured to be greater than or equal to 4.0 μM)”.
Turning to `CC(=O)N1CC2(CCN(C3CCN(c4nccs4)CC3)CC2)c2ccccc21` [compound 491], the Emax at M1 muscarinic receptor (setting [4]) and at M4 muscarinic receptor (setting [4]) was less than 25% throughout. Further, on M1 muscarinic receptor (compounds 455-509), the “M1 Activity” value is “+ (activity was measured to be greater than or equal to 5.0 μM)”. The “M4 Activity” value at M4 muscarinic receptor (compounds 455-509) is “++ (activity was measured to be between 2.0 μM and 5.0 μM)”.
For `CCOC(=O)N1C2CCC1CC(N1CCC3(CC1)C(=O)Nc1ccccc13)C2` (centres unmarked) [compound 199], the Emax at M1 muscarinic receptor (setting [1]) is 65 to 85%; on M4 muscarinic receptor (setting [1]), less than 55%. Further, the “M1 Activity” value on M1 muscarinic receptor (setting [2]) was “++ (activity was measured to be between 0.7 μM and 3.0 μM)”. Moreover, at M4 muscarinic receptor (setting [3]), the “M4 Activity” value is “+ (activity was measured to be greater than or equal to 4.0 μM)”.
For `CCOC(=O)N1CCC(N2CCC3(CC2)CN(C(=O)C2CCCCC2)c2ccc(F)cc23)CC1` [compound 281], the Emax on M1 muscarinic receptor (setting [1]) was less than 65%; at M4 muscarinic receptor (setting [1]), 55 to 70%. Moreover, the “M1 Activity” value at M1 muscarinic receptor (setting [2]) was “++ (activity was measured to be between 0.7 μM and 3.0 μM)”. In addition, the “M4 Activity” value on M4 muscarinic receptor (setting [3]) was “++ (activity was measured to be between 0.1 μM and 4.0 μM)”.
Turning to `O=C(O[C@H]1CCOC1)N1C2CCC1CC(N1CCC3(CC1)COc1ccc(F)cc13)C2` (some centres unmarked) [compound 212], the Emax at M1 muscarinic receptor (setting [1]) is less than 65%; at M4 muscarinic receptor (setting [1]), less than 55%. In addition, at M1 muscarinic receptor (setting [2]), the “M1 Activity” value is “+ (activity was measured to be greater than or equal to 3.0 μM)”. Moreover, the “M4 Activity” value at M4 muscarinic receptor (setting [3]) is given as “+ (activity was measured to be greater than or equal to 4.0 μM)”.
For `CC(=O)NC1CC2(CCN(C3CCCCC3)CC2)c2ccccc21` (centres unmarked) [compound 2], in that order: less than 65%, less than 55%, “+ (activity was measured to be greater than or equal to 3.0 μM)” and “+ (activity was measured to be greater than or equal to 4.0 μM)”.
For `CC(=O)N[C@H]1CC2(CCN(CC3CC4CCC3CC4)CC2)c2ccccc21` (some centres unmarked) [compound 29], in that order: more than 85%, more than 70%, “+++ (activity was measured to be less than or equal to 0.7 μM)” and “+++ (activity was measured to be less than or equal to 0.1 μM)”.
For `CCOC(=O)N1CCC(N2CCC3(CC2)CN(C(=O)c2ccc(OC(F)(F)F)cc2)c2ccc(F)cc23)CC1` [compound 66], in that order: more than 85%, more than 70%, “+++ (activity was measured to be less than or equal to 0.7 μM)” and “+++ (activity was measured to be less than or equal to 0.1 μM)”.
Take `CN(C)C(=O)N1CC2(CCN(C3CC4CCC(C3)N4C(=O)O[C@@H]3CCOC3)CC2)c2cc(F)ccc21` (some centres unmarked) [compound 188]: the Emax on M1 muscarinic receptor (setting [1]) was less than 65%; at M4 muscarinic receptor (setting [1]), 55 to 70%. Also, the “M1 Activity” value at M1 muscarinic receptor (setting [2]) is given as “+ (activity was measured to be greater than or equal to 3.0 μM)”. For the same molecule, the “M4 Activity” value on M4 muscarinic receptor (setting [3]) was “+ (activity was measured to be greater than or equal to 4.0 μM)”.
On to `CC(=O)N1CC2(CCN(C3CCN(C(=O)OCCF)CC3)CC2)c2cc(F)ccc21` [compound 172], for which the Emax was more than 85% at M1 muscarinic receptor (setting [1]) and 55 to 70% at M4 muscarinic receptor (setting [1]). The “M1 Activity” value at M1 muscarinic receptor (setting [2]) is “+ (activity was measured to be greater than or equal to 3.0 μM)”. On M4 muscarinic receptor (setting [3]), the “M4 Activity” value was “+ (activity was measured to be greater than or equal to 4.0 μM)”.
Turning to `CCOC(=O)N1CCC(CN2CCC3(CCc4ccccc43)CC2)CC1` [compound 414], at M1 muscarinic receptor (compound nos. 1-454), the “M1 Activity” value is recorded as “+ (activity was measured to be greater than or equal to 3.0 μM)”. Also, the Emax on M1 muscarinic receptor (setting [1]) was less than 65%; at M4 muscarinic receptor (setting [1]), less than 55%. Besides, the “M4 Activity” value at M4 muscarinic receptor (compound nos. 1-454) is “+ (activity was measured to be greater than or equal to 4.0 μM)”.
Consider `CN(C)C(=O)N1CCC2(CCN(C3CCN(c4cnccn4)CC3)CC2)c2ccccc21` [compound 457], for which the Emax at M1 muscarinic receptor (setting [4]) is more than 100%; on M4 muscarinic receptor (setting [4]) it was 25 to 100%. Moreover, on M1 muscarinic receptor (compounds 455-509), the “M1 Activity” value is listed as “+++ (activity was measured to be less than or equal to 2.0 μM)”. Moreover, on M4 muscarinic receptor (compounds 455-509), the “M4 Activity” value is “++ (activity was measured to be between 2.0 μM and 5.0 μM)”.
Take `CN(C)C(=O)N1CC2(CCN(C3CC4CCC(C3)N4C(=O)OCCF)CC2)c2cc(F)ccc21` (centres unmarked) [compound 32]: the Emax on M1 muscarinic receptor (setting [1]) was more than 85%; at M4 muscarinic receptor (setting [1]), 55 to 70%. Besides, the “M1 Activity” value at M1 muscarinic receptor (setting [2]) is recorded as “+++ (activity was measured to be less than or equal to 0.7 μM)”. For the same molecule, the “M4 Activity” value at M4 muscarinic receptor (setting [3]) was “+++ (activity was measured to be less than or equal to 0.1 μM)”.
Take `CC(=O)N1CC2(CCN(C3CCN(c4cncc(C5CC5)n4)CC3)CC2)c2ccccc21` [compound 503]: the Emax on M1 muscarinic receptor (setting [4]) and on M4 muscarinic receptor (setting [4]) was less than 25% in each case. In addition, the “M1 Activity” value on M1 muscarinic receptor (compounds 455-509) is listed as “+++ (activity was measured to be less than or equal to 2.0 μM)”. In addition, the “M4 Activity” value at M4 muscarinic receptor (compounds 455-509) is “++ (activity was measured to be between 2.0 μM and 5.0 μM)”.
As to `CCOC(=O)N1CCC(N2CCC3(CC2)CN(CC(=O)CC)c2ccc(F)cc23)CC1` [compound 303], the results for the Emax on M1 muscarinic receptor (setting [1]) and on M4 muscarinic receptor (setting [1]) were more than 85% and less than 55%, respectively. Also, the “M1 Activity” value on M1 muscarinic receptor (setting [2]) was “++ (activity was measured to be between 0.7 μM and 3.0 μM)”. For the same molecule, the “M4 Activity” value at M4 muscarinic receptor (setting [3]) was “+ (activity was measured to be greater than or equal to 4.0 μM)”.
As for `CCOC(=O)N1CCC(N2CCC3(CC2)CN(C(=O)N(C)c2ccccc2)c2ccc(F)cc23)CC1` [compound 169], the Emax at M1 muscarinic receptor (setting [1]) is 65 to 85%; at M4 muscarinic receptor (setting [1]), more than 70%. Further, the “M1 Activity” value on M1 muscarinic receptor (setting [2]) is listed as “+++ (activity was measured to be less than or equal to 0.7 μM)”. Also, the “M4 Activity” value on M4 muscarinic receptor (setting [3]) is reported as “+ (activity was measured to be greater than or equal to 4.0 μM)”.
Regarding `O=C(OCC1CCCO1)N1C2CCC1CC(N1CCC3(CC1)COc1ccc(F)cc13)C2` (centres unmarked) [compound 363], the Emax was less than 65% on M1 muscarinic receptor (setting [1]) and less than 55% on M4 muscarinic receptor (setting [1]). Moreover, the “M1 Activity” value at M1 muscarinic receptor (setting [2]) is “++ (activity was measured to be between 0.7 μM and 3.0 μM)”. Besides, at M4 muscarinic receptor (setting [3]), the “M4 Activity” value is “+ (activity was measured to be greater than or equal to 4.0 μM)”.
On to `CCOC(=O)N1C2CCC1CC(N1CCC3(CC1)CN(C(=O)C(C)C)c1ccc(F)cc13)C2` (centres unmarked) [compound 390], for which the “M1 Activity” value at M1 muscarinic receptor (compound nos. 1-454) was “+++ (activity was measured to be less than or equal to 0.7 μM)”. The Emax on M1 muscarinic receptor (setting [1]) was 65 to 85%; on M4 muscarinic receptor (setting [1]), less than 55%. Moreover, on M4 muscarinic receptor (compound nos. 1-454), the “M4 Activity” value is listed as “+ (activity was measured to be greater than or equal to 4.0 μM)”.

Source of the values: patent publication US7858635B2 (priority 2005, dated 2010).
